Tests used:
human TLR8 = target: T1, human TLR8 (Homo sapiens, UniProt Q9NR97); assay: HEK-Blue hTLR8 SEAP reporter gene agonist assay; format: cell-based; conditions: HEK-Blue hTLR8 cells, 16 to 22 hours incubation
T1 construct: host or cells: HEK-Blue hTLR8 (HEK293-derived reporter cells)
T1 sequence (Q9NR97 27-1041): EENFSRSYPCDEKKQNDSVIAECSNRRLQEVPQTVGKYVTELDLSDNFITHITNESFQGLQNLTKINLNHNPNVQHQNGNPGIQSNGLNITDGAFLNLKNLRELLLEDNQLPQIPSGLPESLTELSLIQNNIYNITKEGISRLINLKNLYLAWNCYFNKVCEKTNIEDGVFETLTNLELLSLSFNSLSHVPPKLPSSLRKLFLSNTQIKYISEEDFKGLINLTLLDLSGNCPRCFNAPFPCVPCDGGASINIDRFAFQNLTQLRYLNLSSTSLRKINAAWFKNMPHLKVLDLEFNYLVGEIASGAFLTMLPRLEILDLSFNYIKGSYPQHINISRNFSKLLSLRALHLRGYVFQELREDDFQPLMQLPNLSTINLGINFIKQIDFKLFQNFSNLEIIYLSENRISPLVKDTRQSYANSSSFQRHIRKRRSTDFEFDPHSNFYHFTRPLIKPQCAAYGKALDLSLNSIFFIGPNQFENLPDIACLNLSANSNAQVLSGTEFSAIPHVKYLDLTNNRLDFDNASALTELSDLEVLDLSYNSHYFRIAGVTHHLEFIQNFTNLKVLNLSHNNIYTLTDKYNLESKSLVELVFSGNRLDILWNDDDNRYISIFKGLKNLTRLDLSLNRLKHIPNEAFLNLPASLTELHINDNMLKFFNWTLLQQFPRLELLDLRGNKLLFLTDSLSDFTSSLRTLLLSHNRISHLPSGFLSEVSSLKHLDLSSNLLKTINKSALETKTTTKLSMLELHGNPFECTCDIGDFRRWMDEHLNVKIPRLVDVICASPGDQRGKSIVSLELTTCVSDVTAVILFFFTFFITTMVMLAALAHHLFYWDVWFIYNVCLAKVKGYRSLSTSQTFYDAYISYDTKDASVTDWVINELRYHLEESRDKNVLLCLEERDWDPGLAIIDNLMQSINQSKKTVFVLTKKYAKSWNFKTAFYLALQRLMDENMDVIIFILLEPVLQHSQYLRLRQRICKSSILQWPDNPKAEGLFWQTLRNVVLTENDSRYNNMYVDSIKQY
Method in brief: (§1)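 HEK-Blue cells stably expressing human TLR7 or TLR8 carry a SEAP reporter driven by a minimal IFN-β promoter fused to 5×NF-κB and AP-1 sites. Compounds at […] final, 16 to 22 h. SEAP in the medium measured with Quanti-blue at OD650, and EC50 derived.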

human TLR7 = target: T2, human TLR7 (Homo sapiens, UniProt Q9NYK1); assay: HEK-Blue hTLR7 SEAP reporter gene agonist assay; format: cell-based; conditions: HEK-Blue hTLR7 cells, 16 to 22 hours incubation
T2 construct: host or cells: HEK-Blue hTLR7 (HEK293-derived reporter cells)
T2 sequence (Q9NYK1 27-1049): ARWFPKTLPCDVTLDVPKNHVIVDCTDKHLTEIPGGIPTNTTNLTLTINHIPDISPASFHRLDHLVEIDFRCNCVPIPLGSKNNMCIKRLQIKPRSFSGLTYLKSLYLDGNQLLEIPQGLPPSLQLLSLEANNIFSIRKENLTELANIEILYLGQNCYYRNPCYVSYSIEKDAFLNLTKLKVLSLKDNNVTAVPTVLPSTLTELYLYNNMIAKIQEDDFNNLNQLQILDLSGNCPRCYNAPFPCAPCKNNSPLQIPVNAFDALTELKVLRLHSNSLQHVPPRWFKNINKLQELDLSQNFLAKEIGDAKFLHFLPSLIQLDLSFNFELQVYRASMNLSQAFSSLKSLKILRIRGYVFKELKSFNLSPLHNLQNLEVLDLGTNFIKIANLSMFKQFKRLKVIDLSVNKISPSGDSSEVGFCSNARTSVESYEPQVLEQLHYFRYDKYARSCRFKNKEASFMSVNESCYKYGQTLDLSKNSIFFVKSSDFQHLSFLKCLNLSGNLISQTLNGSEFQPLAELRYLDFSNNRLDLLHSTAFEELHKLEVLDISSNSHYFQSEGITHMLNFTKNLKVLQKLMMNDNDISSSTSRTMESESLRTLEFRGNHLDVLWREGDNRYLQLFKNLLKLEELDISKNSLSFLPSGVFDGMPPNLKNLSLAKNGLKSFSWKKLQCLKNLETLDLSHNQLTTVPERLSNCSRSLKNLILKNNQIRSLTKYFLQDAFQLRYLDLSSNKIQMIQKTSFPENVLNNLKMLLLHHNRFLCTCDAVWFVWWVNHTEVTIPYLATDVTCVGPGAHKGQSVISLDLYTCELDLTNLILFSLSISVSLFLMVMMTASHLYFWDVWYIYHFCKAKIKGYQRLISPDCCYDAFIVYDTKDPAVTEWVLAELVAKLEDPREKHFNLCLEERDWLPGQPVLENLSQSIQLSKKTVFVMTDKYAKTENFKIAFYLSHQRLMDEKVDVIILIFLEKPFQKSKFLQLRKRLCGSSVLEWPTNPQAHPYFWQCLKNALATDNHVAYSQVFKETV
Method in brief: as §1

Row | Compound | EC50 (human TLR8) | EC50 (human TLR7)
1 | CCCCNc1nc(N)nc2ccn(Cc3ccc(CN4CCCC4)cc3F)c(=O)c12 [Compound I-51, 2-amino-4-(butylamino)-6-(2-fluoro-4-(pyrrolidin-1-ylmethyl)benzyl)pyrido[4,3-d]pyrimidin-5(6H)-one] | 88 nM | 98 nM
2 | CCC[C@@H](C)Nc1nc(N)nc2ccn(Cc3ccc(CN(CCO)CCO)cc3OC)c(=O)c12 [Compound I-166, (R)-2-amino-6-(4-((bis(2-hydroxyethyl)amino)methyl)-2-methoxybenzyl)-4-(pentan-2-ylamino)pyrido[4,3-d]pyrimidin-5(6H)-one] | 30 nM | 30 nM
3 | CCC[C@@H](C)Nc1nc(N)nc2ccn(Cc3ccc(C(=O)N4CCNCC4)cc3OC)c(=O)c12 [Compound I-180, (R)-2-amino-6-(2-methoxy-4-(piperazine-1-carbonyl)benzyl)-4-(pentan-2-ylamino)pyrido[4,3-d]pyrimidin-5(6H)-one] | 12 nM | 38 nM
4 | CCCCNc1nc(N)nc2ccn(Cc3ccc(CN4CCCC4)cc3OC)c(=O)c12 [Compound I-2, 2-amino-4-(butylamino)-6-(2-methoxy-4-(pyrrolidin-1-ylmethyl)benzyl)pyrido[4,3-d]pyrimidin-5(6H)-one] | 107 nM | 64 nM
5 | CCC[C@@H](C)Nc1nc(N)nc2ccn(Cc3ccc(OCCNC)nc3)c(=O)c12 [Compound I-153, (R)-2-amino-6-((6-(2-(methylamino)ethoxy)pyridin-3-yl)methyl)-4-(pentan-2-ylamino)pyrido[4,3-d]pyrimidin-5(6H)-one] | 40 nM | 90 nM
6 | CCCCNc1nc(N)nc2ccn(Cc3ccc(CN(CCC)CCO)cc3)c(=O)c12 [Compound I-98, 2-amino-4-(butylamino)-6-(4-(((2-hydroxyethyl)(propyl)amino)methyl)benzyl)pyrido[4,3-d]pyrimidin-5(6H)-one] | 85 nM | 101 nM
7 | CCCCNc1nc(N)nc2ccn(Cc3ccc(C(=O)N4CCNCC4)cc3)c(=O)c12 [Compound I-14, 2-amino-4-(butylamino)-6-(4-(piperazine-1-carbonyl)benzyl)pyrido[4,3-d]pyrimidin-5(6H)-one] | 77 nM | 85 nM
8 | CCC[C@@H](COC)Nc1nc(N)nc2ccn(Cc3ccc(CN4CCCC4)cc3OC)c(=O)c12 [Compound I-163, (S)-2-amino-6-(2-methoxy-4-(pyrrolidin-1-ylmethyl)benzyl)-4-((1-methoxypentan-2-yl)amino)pyrido[4,3-d]pyrimidin-5(6H)-one] | 70 nM | 30 nM
9 | CCCCNc1nc(N)nc2ccn(Cc3ccc(CN(C)C)cc3)c(=O)c12 [Compound I-35, 2-amino-4-(butylamino)-6-(4-((dimethylamino)methyl)benzyl)pyrido[4,3-d]pyrimidin-5(6H)-one] | 58 nM | 87 nM

Now from value to molecule:

Row | EC50 (human TLR8) | EC50 (human TLR7) | Compound
10 | 46 nM | 65 nM | CCCC(CCO)Nc1nc(N)nc2ccn(Cc3ccc(CN4CCCC4)cc3)c(=O)c12 (stereo not shown) [Compound I-95, 2-amino-4-((1-hydroxyhexan-3-yl)amino)-6-(4-(pyrrolidin-1-ylmethyl)benzyl)pyrido[4,3-d]pyrimidin-5(6H)-one]
11 | 10 nM | 20 nM | CCC[C@@H](CO)Nc1nc(N)nc2ccn(Cc3ccc(CN4CCN(C)CC4)cc3OC)c(=O)c12 [Compound I-162, (S)-2-amino-4-((1-hydroxypentan-2-yl)amino)-6-(2-methoxy-4-((4-methylpiperazin-1-yl)methyl)benzyl)pyrido[4,3-d]pyrimidin-5(6H)-one]
12 | 40 nM | 70 nM | CCC[C@@H](CCO)Nc1nc(N)nc2ccn(Cc3ccc(CN4CC5(COC5)C4)cc3)c(=O)c12 [Compound I-142, (S)-6-(4-((2-oxa-6-azaspiro[3.3]heptan-6-yl)methyl)benzyl)-2-amino-4-((1-hydroxyhexan-3-yl)amino)pyrido[4,3-d]pyrimidin-5(6H)-one]
13 | 10 nM | 40 nM | CCC[C@@H](CO)Nc1nc(N)nc2ccn(Cc3ccc(CN4CCCC4)cc3Cl)c(=O)c12 [Compound I-168, (S)-2-amino-6-(2-chloro-4-(pyrrolidin-1-ylmethyl)benzyl)-4-((1-hydroxypentan-2-yl)amino)pyrido[4,3-d]pyrimidin-5(6H)-one]
14 | 58 nM | 81 nM | CCCCNc1nc(N)nc2ccn(Cc3ccc(CN4CCCC4)cc3)c(=O)c12 [Compound I-1, 2-amino-4-(butylamino)-6-(4-(pyrrolidin-1-ylmethyl)benzyl)pyrido[4,3-d]pyrimidin-5(6H)-one]
15 | 3 nM | 44 nM | CCC[C@@H](CO)Nc1nc(N)nc2ccn(Cc3ccc(CN4CCCC4)cc3)c(=O)c12 [Compound I-127, (S)-2-amino-4-((1-hydroxypentan-2-yl)amino)-6-(4-(pyrrolidin-1-ylmethyl)benzyl)pyrido[4,3-d]pyrimidin-5(6H)-one]
16 | 52 nM | 40 nM | CCC[C@@H](CCO)Nc1nc(N)nc2ccn(Cc3ccc(CN4CCCC4)cc3)c(=O)c12 [Compound I-118, (S)-2-amino-4-((1-hydroxyhexan-3-yl)amino)-6-(4-(pyrrolidin-1-ylmethyl)benzyl)pyrido[4,3-d]pyrimidin-5(6H)-one]
17 | 107 nM | 96 nM | CCC[C@@H](C)Nc1nc(N)nc2ccn(Cc3ccc(CN4CCNCC4)cc3OC)c(=O)c12 [Compound I-184, (R)-2-amino-6-(2-methoxy-4-(piperazin-1-ylmethyl)benzyl)-4-(pentan-2-ylamino)pyrido[4,3-d]pyrimidin-5(6H)-one]
18 | 31 nM | 50 nM | CCCC(CCOC(=O)C(F)(F)F)Nc1nc(N)nc2ccn(Cc3ccc(CN4CCCC4)cc3)c(=O)c12 (stereo not shown) [Compound I-96, 3-((2-amino-5-oxo-6-(4-(pyrrolidin-1-ylmethyl)benzyl)-5,6-dihydropyrido[4,3-d]pyrimidin-4-yl)amino)hexyl 2,2,2-trifluoroacetate]
19 | 58 nM | 91 nM | CCC[C@@H](C)Nc1nc(N)nc2ccn(Cc3ccc(CN4CCN(C)CC4)cc3OC)c(=O)c12 [Compound I-179, (R)-2-amino-6-(2-methoxy-4-((4-methylpiperazin-1-yl)methyl)benzyl)-4-(pentan-2-ylamino)pyrido[4,3-d]pyrimidin-5(6H)-one]
20 | 40 nM | 40 nM | CCC[C@@H](C)Nc1nc(N)nc2ccn(Cc3ccc(CN4CCN(CCO)CC4)cc3)c(=O)c12 [Compound I-148, (R)-2-amino-6-(4-((4-(2-hydroxyethyl)piperazin-1-yl)methyl)benzyl)-4-(pentan-2-ylamino)pyrido[4,3-d]pyrimidin-5(6H)-one]

— patent US20250059183A1, “PYRIDINE[4,3-D]PYRIMIDINE COMPOUND AS TLR7/8 AGONIST” (SHANGHAI VISONPHARMA CO., LTD., priority 2021, published 2025)
